Laboratory results published in BigSolDB 2.1.

NC(=O)N1c2ccccc2CC(=O)c2ccccc21
solubility (mole fraction)
Details | in THF | in acetone | in acetonitrile | in ethanol | in isopropanol | in methanol | in n-butanol | in n-propanol
288.15 K | 0.00204 | 0.00105 | 0.000641 | 0.000273 | 0.000151 | 0.000534 | 0.000251 | 0.000245
293.15 K | 0.00217 | 0.0012 | 0.000751 | 0.000322 | 0.000187 | 0.000619 | 0.000309 | 0.000301
298.15 K | 0.00241 | 0.00134 | 0.000839 | 0.000383 | 0.000217 | 0.000759 | 0.000355 | 0.000358
303.15 K | 0.00266 | 0.00154 | 0.00103 | 0.000488 | 0.000299 | 0.000907 | 0.000479 | 0.000475
308.15 K | 0.00308 | 0.00182 | 0.00122 | 0.000617 | 0.000413 | 0.00111 | 0.000617 | 0.000616
